Measured values from patent publication US12358892B2, “Metalloenzyme inhibitors for treating cancers, Alzheimer's disease, hemochromatosis, and other disorders” (Miralogx LLC, priority 2020, dated 2025).

Legend:
[1] = test system: 12 human primary cell-based systems; experiment: BioMAP Diversity PLUS panel, protein biomarker readouts and cytotoxicity
Excerpt: This example describes testing the compound prepared in Example 1 in the BioMAP Diversity PLUS (Eurofins Discovery, Burlingame, California) panel of 12 human primary cell-based systems designed to model different aspects of the human body in an in vitro format. The 12 systems in the Diversity PLUS panel allow test agent characterization in an unbiased way across a broad set of systems modeling various human disease states. BioMAP systems are constructed with one or more primary cell types from healthy human donors, with stimuli (such as cytokines or growth factors) added to capture relevant signaling networks that naturally occur in human tissue or pathological conditions. Vascular biology is modeled in both a Th1 (3C system) and a Th2 (4H system) inflammatory environment, as well as in a Th1 inflammatory state specific to arterial smooth muscle cells (CASM3C system). Additional systems recapitulate aspects of the systemic immune response including monocyte-driven Th1 inflammation (LPS system) or T cell stimulation (SAg system), chronic Th1 inflammation driven by macrophage activation (lMphg system) and the T cell-dependent activation of B cells that occurs in germinal centers (BT system). The BE3C system (Th1) and the BF4T system (Th2) represent airway inflammation of the lung, while the MyoF system models myofibroblast-lung tissue remodeling. Lastly, skin biology is addressed in the KF3CT system modeling Th1 cutaneous inflammation and the HDF3CGF system modeling wound healing.
The X-axis lists the quantitative protein-based biomarker readouts measured in each system. The Y-axis represents a log-transformed ratio of the biomarker readouts for the drug-treated sample (n=1) over vehicle controls (n≥6). The grey region around the Y-axis represents the 95% significance envelope generated from historical vehicle controls. Biomarker activities are annotated when two or more consecutive concentrations change in the same direction relative to vehicle controls, are outside of the significance envelope, and have at least one concentration with an effect size >20% (|log 10 ratio|>0.1). Biomarker key activities are described as modulated if these activities increase in some systems, but decrease in others. Cytotoxicity is indicated on the profile plot by a thin black arrow above the X-axis, and antiproliferative effects are indicated by a thick grey arrow. Cytotoxicity and antiproliferative arrows only require one concentration to meet the indicated threshold for profile annotation. As summarized in Table 2 below, the compound was active with 35 annotated readouts. Specifically, the compound impacted inflammation-related activities (decreased Eotaxin 3, VCAM-1, MCP-1, SAA, sTNFα, MIP-1α; increased IL-1α, IL-6; modulated IL-8), immunomodulatory activities (decreased CD40, sIL-1β, sIgG, M-CSF, sIL-17A, sIL-6, sIL-17F, sIL-2), tissue remodeling activities (decreased PAI-1, uPAR, αSMA, Keratin 8/18; increased collagen I, MMP-1), and hemostasis-related activities (increased TF).
BioMAP® panels consist of human primary cell-based systems designed to model different aspects of the human body in an in vitro format. BioMAP® systems are constructed with one or more primary cell types from healthy human donors, with stimuli (such as cytokines or growth factors) added to capture relevant signaling networks that naturally occur in human tissue or pathological conditions. Vascular biology is modeled in both a Th1 (3C system) and a Th2 (4H system) inflammatory environment, as well as in a Th1 inflammatory state specific to arterial smooth muscle cells (CASM3C system). Additional systems recapitulate aspects of the systemic immune response including monocyte-driven Th1 inflammation (LPS system) or T cell stimulation (SAg system), chronic Th1 inflammation driven by macrophage activation (Mphg system) and the T cell-dependent activation of B cells that occurs in germinal centers (BT system). […]

[2] = test system: human primary endothelial cells; experiment: BioMAP proliferation readout, endothelial cells; type: cell-based; settings: 100 μM, 33 μM, 11 μM
Excerpt: The X-axis lists the quantitative protein-based biomarker readouts measured in each system. The Y-axis represents a log-transformed ratio of the biomarker readouts for the drug-treated sample (n=1) over vehicle controls (n≥6). The grey region around the Y-axis represents the 95% significance envelope generated from historical vehicle controls. Biomarker activities are annotated when two or more consecutive concentrations change in the same direction relative to vehicle controls, are outside of the significance envelope, and have at least one concentration with an effect size >20% (|log 10 ratio|>0.1). Biomarker key activities are described as modulated if these activities increase in some systems, but decrease in others. […] As summarized in Table 2 below, the compound was active with 35 annotated readouts. […]
Human primary cells in BioMAP® systems are used at early passage (passage 4 or earlier) to minimize adaptation to cell culture conditions and preserve physiological signaling responses. […] Test agents prepared in either DMSO (small molecules; final concentration ≤0.1%) or PBS (biologics) are added at the indicated concentrations 1-hr before stimulation, and remain in culture for 24-hrs or as otherwise indicated (48-hrs, MyoF system; 72-hrs, BT system (soluble readouts); 168-hrs, BT system (secreted IgG)). […]

[3] = Example 3.2, hemostasis-related activities
[4] = Example 3.2, immunomodulatory activities
[5] = Example 3.2, inflammation-related activities
[6] = Example 3.2, tissue remodeling activities

C1=NC(c2cncc(C3CCC=N3)c2)CC1 (stereo not drawn) [3,5-bis(3,4-dihydro-2H-pyrrol-2-yl)pyridine]
LDLR ([1]; Example 3.2): decrease
TF [1, 3]: increased
TM [1, 3]: decreased
CD38 [1, 4]: decreased
CD40 [1, 4]: decreased
HLA-DR [1, 4]: decreased
sIL-1β [1, 4]: decreased
sIL-2 [1, 4]: decreased
sIL-6 [1, 4]: decreased
sIL-17A [1, 4]: decreased
sIL-17F [1, 4]: decreased
sIgG [1, 4]: decreased
Eotaxin 3 [1, 5]: decreased
IL-6 [1, 5]: decreased
IL-8 [1, 5]: modulated
MCP-1 [1, 5]: decreased
MIG [1, 5]: decreased
P-selectin [1, 5]: decreased
VCAM-1 [1, 5]: decreased
sPGE2 [1, 5]: increased
sTNFα [1, 5]: modulated
Collagen IV [1, 6]: decreased
MMP9 [1, 6]: decreased
MMP-1 [1, 6]: decreased
PAI-1 [1, 6]: decreased
TIMP-1 [1, 6]: decreased
alphaSMA [1, 6]: decreased
uPAR [1, 6]: decreased
cytotoxicity ([1]; at the concentrations tested in this study): not cytotoxic
antiproliferative effect on human primary endothelial cells [2]: antiproliferative
